The target in one experiment is activated human C1 (Homo sapiens, UniProt P09871). Briefly: Test Code 026 (C1 inhibitor). Particulars: serial dilution assay, twofold dilutions; higher well number indicates higher activity. Format: biochemical.
For experiment [1], the system named is serum complement activity. Briefly: Guinea Pig Intraperitoneal Test (GPIP). It counts as in vivo. Particulars: Cavia porcellus, ip, 200 mg/kg i.p. The protocol: The concentration of compound inhibiting 50% is reported; and (iv) Guinea Pig Intraperitoneal Test (GPIP): Guinea pigs weighing about 300 g are dosed intraperitoneally (i.p.) with 200 mg/kg of the test compound dissolved in saline and adjusted to pH 7-8. Approximately 0.4 ml blood samples, taken by orbital sinus puncture 2 hours and 6 hours after injections, are collected directly into centifuge tubes; 5 ml blood samples, taken by decapitation 24 hours after injection, are collected directly into beakers. The samples are allowed to clot, centrifuged, and the resultant sera are assayed for complement activity using the capillary complement assay. Percent inhibition is calculated by comparison with simultaneous controls.

For experiment [2], the system named is late components of human complement (C3-C9). Nature of the experiment: Test Code 035 (C3-C9 inhibitor), lysis of EAC 142. Format: biochemical. To be noted: serial dilution assay, twofold dilutions; higher well number indicates higher activity.
A further experiment has as its system human serum complement. To be noted: both in vitro and in vivo; cited from earlier work.
Setting [3] is: serum complement 2 hours after injection, read-out: In vivo Activity Guinea Pig % Inhibition Intraperitoneal, 2 hours.
The mark [4] stands for this setting: serum complement 6 hours after injection, read-out: In vivo Activity Guinea Pig % Inhibition Intraperitoneal, 6 hours.
Where [5] appears, read: serum complement 24 hours after injection, read-out: In vivo Activity Guinea Pig % Inhibition Intraperitoneal, 24 hours.

Results on 13 compounds are retold here after US4470976A, “Poly-cation salt of 4-O-polyhexaose-thio-arylene sulfates” (American Cyanamid Company, priority 1983, dated 1984).

Structures can show the parent of a compound that is named as a salt. Where two headings read alike, the source gives them in different places.

Turning to `COc1ccc(S[C@@H]2O[C@H](COS(=O)(=O)[O-])[C@@H](O[C@H]3O[C@H](COS(=O)(=O)[O-])[C@@H](OS(=O)(=O)[O-])[C@H](OS(=O)(=O)[O-])[C@H]3OS(=O)(=O)[O-])[C@H](OS(=O)(=O)[O-])[C@H]2OS(=O)(=O)[O-])cc1.[Na+].[Na+].[Na+].[Na+].[Na+].[Na+].[Na+]` [4-Methoxyphenyl 2,3,6-tri-O-sulfo-4-O-(2,3,4,6-tetra-O-sulfo-α-D-glucopyranosyl)-1-thio-β-D-glucopyranoside heptasodium salt], the “In vitro Activity C1 026 Wells” value on activated human C1 is on record as 4 Wells.
By inhibition is commonly meant the share of the control response that was lost under treatment. For `CCOC(=O)C(=O)Nc1ccc(S[C@@H]2O[C@H](COS(=O)(=O)O)[C@@H](O[C@H]3O[C@H](COS(=O)(=O)O)[C@@H](OS(=O)(=O)O)[C@H](OS(=O)(=O)O)[C@H]3OS(=O)(=O)O)[C@H](OS(=O)(=O)O)[C@H]2OS(=O)(=O)O)cc1` [4-(Ethoxyoxalylamino)phenyl 2,3,6-tri-O-sulfo-4-O-(2,3,4,6-tetra-O-sulfo-α-D-glucopyranosyl)-1-thio-β-D-glucopyranoside heptasodium salt], the inhibition at 200 mg/kg in experiment [1] (setting [3]) amounted to 81%; in experiment [1] (setting [4]), 71%; in experiment [1] (setting [5]) it was 32%. For the same compound, on activated human C1, the “In vitro Activity C1 026 Wells” value was found to be 8 Wells.
Regarding `O=C([O-])c1ccccc1S[C@@H]1O[C@H](COS(=O)(=O)[O-])[C@@H](O[C@H]2O[C@H](COS(=O)(=O)[O-])[C@@H](OS(=O)(=O)[O-])[C@H](OS(=O)(=O)[O-])[C@H]2OS(=O)(=O)[O-])[C@H](OS(=O)(=O)[O-])[C@H]1OS(=O)(=O)[O-].[Na+].[Na+].[Na+].[Na+].[Na+].[Na+].[Na+].[Na+]` [2-Carboxyphenyl 2,3,6-tri-O-sulfo-4-O-(2,3,4,6-tetra-O-sulfo-α-D-glucopyranosyl)-1-thio-β-D-glucopyranoside octasodium salt], at activated human C1, the “In vitro Activity C1 026 Wells” value came to 8 Wells.
Still for that read-out and setting: with `O=S(=O)([O-])OC[C@H]1O[C@@H](Sc2cccc(C(F)(F)F)c2)[C@H](OS(=O)(=O)[O-])[C@@H](OS(=O)(=O)[O-])[C@@H]1O[C@H]1O[C@H](COS(=O)(=O)[O-])[C@@H](OS(=O)(=O)[O-])[C@H](OS(=O)(=O)[O-])[C@H]1OS(=O)(=O)[O-].[Na+].[Na+].[Na+].[Na+].[Na+].[Na+].[Na+]` [3-Trifluoromethylphenyl 2,3,6-tri-O-sulfo-4-O-(2,3,4,6-tetra-O-sulfo-α-D-glucopyranosyl)-1-thio-β-D-glucopyranoside heptasodium salt] the figure was 5 Wells.
Consider `O=S(=O)(O)OC[C@H]1O[C@@H]([S+]([O-])c2cc(OS(=O)(=O)O)ccc2OS(=O)(=O)O)[C@H](OS(=O)(=O)O)[C@@H](OS(=O)(=O)O)[C@@H]1O[C@H]1O[C@H](COS(=O)(=O)O)[C@@H](OS(=O)(=O)O)[C@H](OS(=O)(=O)O)[C@H]1OS(=O)(=O)O` (stereo partly drawn) [2,5-Bis(sulfooxy)phenyl 2,3,6-tri-O-sulfo-4-O-(2,3,4,6-tetra-O-sulfo-α-D-glucopyranosyl)-1-sulfinyl-β-D-glucopyranoside nonasodium salt], for which the “In vitro Activity C1 026 Wells” value on activated human C1 amounted to 11 Wells. In addition, the “In vitro Activity C-Late 035 Wells” value in experiment [2] was determined as 2 Wells.
In the case of `CC(=O)Nc1ccc(S[C@@H]2O[C@H](COS(=O)(=O)O)[C@@H](O[C@@H]3O[C@H](COS(=O)(=O)O)[C@@H](OS(=O)(=O)O)[C@H](OS(=O)(=O)O)[C@H]3OS(=O)(=O)O)[C@H](OS(=O)(=O)O)[C@H]2OS(=O)(=O)O)cc1` [4-acetamidophenyl 2,3,6-tri-O-sulfo-4-O-(2,3,4,6-tetra-O-sulfo-β-D-glucopyranosyl)-1-thio-β-D-glucopyranoside heptasodium salt], the inhibition at 200 mg/kg in experiment [1] (setting [3]) stood at 86%; in experiment [1] (setting [4]), 66%; in experiment [1] (setting [5]) it was 15%.
For `O=S(=O)(O)OC[C@H]1O[C@@H](Sc2cccc(S)c2)[C@H](OS(=O)(=O)O)[C@@H](OS(=O)(=O)O)[C@@H]1O[C@H]1O[C@H](COS(=O)(=O)O)[C@@H](OS(=O)(=O)O)[C@H](OS(=O)(=O)O)[C@H]1OS(=O)(=O)O.[Na+].[Na+].[Na+].[Na+].[Na+].[Na+].[Na+].[Na+]` [3-Mercaptophenyl 2,3,6-tri-O-sulfo-4-O-(2,3,4,6-tetra-O-sulfo-α-D-glucopyranosyl)-1-thio-β-D-glucopyranoside octasodium salt], the “In vitro Activity C1 026 Wells” value at activated human C1 is listed as 11 Wells. For the same compound, the “In vitro Activity C-Late 035 Wells” value in experiment [2] is reported as 3 Wells.
As to “4-(Sulfanilamido)phenyl 2,3,6-tri-O-sulfo-4-O-(2,3,4,6-tetra-O-sulfo-α-D-glucopyranosyl)-1-thio-β-D-glucopyranoside octasodium salt”, on activated human C1, the “In vitro Activity C1 026 Wells” value came to 5 Wells.
As for pentosan-polysulfoester, in the experiment with human serum complement, the “anticomplementary activity, judged by the reduction in total hemolytic complement activity” value is “has an anticomplementary activity on human serum, both in vitro and in vivo”.
With `O=S(=O)([O-])OC[C@H]1O[C@@H](Sc2ccc(OS(=O)(=O)[O-])cc2)[C@H](OS(=O)(=O)[O-])[C@@H](OS(=O)(=O)[O-])[C@@H]1O[C@H]1O[C@H](COS(=O)(=O)[O-])[C@@H](OS(=O)(=O)[O-])[C@H](OS(=O)(=O)[O-])[C@H]1OS(=O)(=O)[O-].[Na+].[Na+].[Na+].[Na+].[Na+].[Na+].[Na+].[Na+]` [4-Sulfooxyphenyl 2,3,6-tri-O-sulfo-4-O-(2,3,4,6-tetra-O-sulfo-α-D-glucopyranosyl)-1-thio-β-D-glucopyranoside octasodium salt], the “In vitro Activity C1 026 Wells” value on activated human C1 was 8 Wells.
Turning to `Nc1ccc(S[C@@H]2O[C@H](COS(=O)(=O)[O-])[C@@H](O[C@H]3O[C@H](COS(=O)(=O)[O-])[C@@H](OS(=O)(=O)[O-])[C@H](OS(=O)(=O)[O-])[C@H]3OS(=O)(=O)[O-])[C@H](OS(=O)(=O)[O-])[C@H]2OS(=O)(=O)[O-])cc1.[Na+].[Na+].[Na+].[Na+].[Na+].[Na+].[Na+]` [4-Aminophenyl 2,3,6-tri-O-sulfo-4-O-(2,3,4,6-tetra-O-sulfo-α-D-glucopyranosyl)-1-thio-β-D-glucopyranoside heptasodium salt], the inhibition at 200 mg/kg in experiment [1] (setting [3]) was 61%; in experiment [1] (setting [4]), 19%; in experiment [1] (setting [5]), 42%. For the same compound, the “In vitro Activity C1 026 Wells” value on activated human C1 amounted to 9 Wells.
With `O=S(=O)([O-])OC[C@H]1O[C@@H](Sc2cc(OS(=O)(=O)[O-])ccc2OS(=O)(=O)[O-])[C@H](OS(=O)(=O)[O-])[C@@H](OS(=O)(=O)[O-])[C@@H]1O[C@H]1O[C@H](COS(=O)(=O)[O-])[C@@H](OS(=O)(=O)[O-])[C@H](OS(=O)(=O)[O-])[C@H]1OS(=O)(=O)[O-].[Na+].[Na+].[Na+].[Na+].[Na+].[Na+].[Na+].[Na+].[Na+]` [2,5-Bis(sulfooxy)phenyl 2,3,6-tri-O-sulfo-4-O-(2,3,4,6-tetra-O-sulfo-α-D-glucopyranosyl)-1-thio-β-D-glucopyranoside nonasodium salt], the inhibition at 200 mg/kg in experiment [1] (setting [3]) stood at 83%; in experiment [1] (setting [4]), 77%. Further, at activated human C1, the “In vitro Activity C1 026 Wells” value is 9 Wells. Moreover, the “In vitro Activity C-Late 035 Wells” value in experiment [2] was found to be 2 Wells.
Consider `O=S(=O)([O-])OC[C@H]1O[C@@H](Sc2ccc(F)cc2)[C@H](OS(=O)(=O)[O-])[C@@H](OS(=O)(=O)[O-])[C@@H]1O[C@H]1O[C@H](COS(=O)(=O)[O-])[C@@H](OS(=O)(=O)[O-])[C@H](OS(=O)(=O)[O-])[C@H]1OS(=O)(=O)[O-].[Na+].[Na+].[Na+].[Na+].[Na+].[Na+].[Na+]` [4-Fluorophenyl 2,3,6-tri-O-sulfo-4-O-(2,3,4,6-tetra-O-sulfo-α-D-glucopyranosyl)-1-thio-β-D-glucopyranoside heptasodium salt], for which the “In vitro Activity C1 026 Wells” value at activated human C1 is given as 8 Wells.
